# Read-outs that look alike come from different tables or passages of the source. Non-standard residues stand in square brackets, D forms with d. Residues, ends and D or L forms follow the SMILES beside them.
# Legend:
# [1] = system: clinical strains of H. pylori; settings: for MIC: MH + 10% FBS + 2% isovitale-X
# Source text: (§1) H. pylori used in this study were either the reference strain obtained from the American Type Culture Collection (ATCC 43504) or clinical strains received frozen from our collaborator Josette Raymond from Hospital Cochin, Paris. Strains were obtained from patients who underwent a gastroendoscopy performed for various gastro-intestinal disorders according to the recommendations of Haute Autorité de Santé (HAS). During the endoscopy, biopsy samples were taken from antrum and corpus. Samples were then crushed, and the material was used for bacterial culture and molecular methods. An antibiogram was performed and strains were then frozen at -80 °C in a broth with 10% glycerol. Bacteria were cultured as previously described. Briefly, H. pylori (ATCC 43504) was cultured in brain heart infusion (BHI) and incubated at 37 °C for 16 h in microaerophilic condition in BD GasPak EZ using BD GasPak EZ CampyPak container system sachets (BD Biosciences, Le Pont-de-Claix, France). For clinical strains, a sample from the frozen bacteria was streaked on Blood Agar (Base) (Sigma-Aldrich, Illkirch-Graffenstaden, France) supplemented with 5% horse defibrinated blood (Fisher Scientific, Les Ulis, France) and 2% isovitale-X (Fisher Scientific, Illkirch-Graffenstaden, France). The petri dishes were then incubated at 37 °C for 4–7 days in microaerophilic condition. Then, a colony is transferred to 3 mL Mueller Hinton (MH) broth supplemented with 10% fetal bovine serum (FBS) and 2% isovitale-X. The cultures were then incubated for 4–7 days until the bacteria grow before further experiments.
# (§2) Briefly, after the growth of H. pylori in liquid culture the optical density (OD) of the bacterial suspensions were read at 600 nm and adjusted to one. Stock solutions of the peptides at 1 mM were prepared in sterile water. Bacteria were diluted in medium to reach bacterial density around 10^5 bacteria/mL. One-hundred microliters per well of bacterial suspension were then added into sterile polypropylene 96-well microplates (Greiner BioOne, Paris, France) and exposed to increasing concentrations of peptides (from zero to 100 µM, 1:2 serial dilution). […] Plates were incubated at 37 °C for 24 h for H. pylori (ATCC 43504) and for 4–7 days for the clinical strains. H. pylori was tested in microaerophilic conditions generated using micro-anaerobic BD GasPak system. At the end of the incubation, OD600nm was measured using microplate reader (Synergy Mx, Biotek, Colmar, France). The MIC was defined as the lowest concentration of drug that inhibited visible growth of the organism. Experiments were conducted in independent triplicate (n = 3).
# H. pylori (ATCC 43504) = system: H. pylori (ATCC 43504)
# Source text: as §1, §2
smiles,measurement,setting,value
"CC[C@H](C)[C@H](NC(=O)CNC(=O)[C@H](CO)NC(=O)[C@H](CC(C)C)NC(=O)[C@@H](N)Cc1ccccc1)C(=O)N[C@H](C(=O)NCC(=O)N[C@@H](CCSC)C(=O)N[C@@H](CC(C)C)C(=O)N[C@H](C)C(=O)N[C@@H](CCCCN)C(=O)N[C@@H](CC(C)C)C(=O)N[C@@H](Cc1ccccc1)C(N)=O)C(C)C [NST1, H-Phe^1-Leu^2-Ser^3-Gly^4-Ile^5-Val^6-Gly^7-Met^8-Leu^9-D-Ala^10-Lys^11-Leu^12-Phe^13-NH2] (H-FLSGIVGML[dA]KLF-NH2)",MIC values against resistant clinical strains (span over all strains),"[1]; all resistant clinical strains, MH + 10% FBS",6.25 to 12.5 µM
same,MIC,"[1]; clinical strain BM18, resistance Clari/Metro",12.5 µM
same,MIC,"[1]; clinical strain EM68, resistance Clari/Metro",12.5 µM
same,MIC,"[1]; clinical strain LN18, resistance Clari",6.25 µM
same,MIC,"[1]; clinical strain MF76, resistance Clari/Metro",12.5 µM
same,MIC,"[1]; clinical strain MP78, resistance Clari/Metro",12.5 µM
same,MIC,"[1]; clinical strain MS67, resistance Clari/Metro",12.5 µM
same,MIC,"[1]; clinical strain NM44, resistance Clari/Metro",6.25 µM
same,MIC on H. pylori (ATCC 43504),"H. pylori (ATCC 43504); MH medium, 24 h, microaerophilic",1.5 µM
same,MIC on H. pylori (ATCC 43504) in MH supplemented with 10% FBS,H. pylori (ATCC 43504); MH supplemented with 10% FBS,6.25 µM
